Source: US20090029949A1, “GPCR Ligands Identified by Computational Modeling” (priority 2006, published 2009)

Tests used:
[1] = Ligand-induced [35S]GTPγS binding, empty vector; format: biochemical; settings: S1P-induced, empty vector in RH7777 cells
Description: (§1) RH7777 and HEK-293 cells (ATCC, Manassas, Va.) were maintained in Dulbecco's modified minimal essential medium (DMEM) containing 10% fetal bovine serum (Hyclone, Logan, Utah). Cells (2×10^6) were transfected with 2 μg of plasmid DNA with Effectene (Qiagen, Valencia, Calif.) according to the manufacturer's instructions, for 24 h. Before ligand binding and receptor activation assays, the cells were washed twice with serum-free DMEM and serum-starved for at least 6 h.
(§2) S1P1 Receptor Activation Assays Receptor functional assays were performed in transiently transfected RH7777 cells by measuring S1P-activated [^35S]GTPγS binding as previously described (28).

S1P1 mutant F5.43G = biological target: T1, S1P1 mutant F5.43G (Homo sapiens, UniProt P21453, F205G); assay: [35S]GTPγS binding, S1P1 F5.43G; format: biochemical; settings: S1P-induced, S1P1 F5.43G in RH7777 cells
T1 construct: expressed in transfected cells; host or cells: RH7777 (transient, pcDNA3.1)
Description: as §1, §2

S1P1 mutant L3.36G = biological target: T2, S1P1 mutant L3.36G (Homo sapiens, UniProt P21453, L128G); assay: [35S]GTPγS binding, S1P1 L3.36G; format: biochemical; settings: S1P-induced, S1P1 L3.36G in RH7777 cells
T2 construct: expressed in transfected cells; host or cells: RH7777 (transient, pcDNA3.1)
Description: as §1, §2

S1P1 mutant I5.41A = biological target: T3, S1P1 mutant I5.41A (Homo sapiens, UniProt P21453, I203A); assay: [35S]GTPγS binding, S1P1 I5.41A; format: biochemical; settings: S1P-induced, S1P1 I5.41A in RH7777 cells
T3 construct: expressed in transfected cells; host or cells: RH7777 (transient, pcDNA3.1)
Description: as §1, §2

S1P1 mutant I5.41F = biological target: T4, S1P1 mutant I5.41F (Homo sapiens, UniProt P21453, I203F); assay: [35S]GTPγS binding, S1P1 I5.41F; format: biochemical; settings: S1P-induced, S1P1 I5.41F in RH7777 cells
T4 construct: expressed in transfected cells; host or cells: RH7777 (transient, pcDNA3.1)
Description: as §1, §2

S1P1 mutant V6.37T = biological target: T5, S1P1 mutant V6.37T (Homo sapiens, UniProt P21453, V258T); assay: [35S]GTPγS binding, S1P1 V6.37T; format: biochemical; settings: S1P-induced, S1P1 V6.37T in RH7777 cells
T5 construct: expressed in transfected cells; host or cells: RH7777 (transient, pcDNA3.1)
Description: as §1, §2

S1P1 mutant V6.37L = biological target: T6, S1P1 mutant V6.37L (Homo sapiens, UniProt P21453, V258L); assay: [35S]GTPγS binding, S1P1 V6.37L; format: biochemical; settings: S1P-induced, S1P1 V6.37L in RH7777 cells
T6 construct: expressed in transfected cells; host or cells: RH7777
Description: as §1, §2

S1P1 mutant F6.44Y = biological target: T7, S1P1 mutant F6.44Y (Homo sapiens, UniProt P21453, F265Y); assay: [35S]GTPγS binding, S1P1 F6.44Y; format: biochemical; settings: S1P-induced, S1P1 F6.44Y in RH7777 cells
T7 construct: expressed in transfected cells; host or cells: RH7777
Description: as §1, §2

S1P1 mutant M3.32K = biological target: T8, S1P1 mutant M3.32K (Homo sapiens, UniProt P21453, M124K); assay: [35S]GTPγS binding, S1P1 M3.32K; format: biochemical; settings: S1P-induced, S1P1 M3.32K in RH7777 cells
T8 construct: expressed in transfected cells; host or cells: RH7777
Description: as §1, §2

S1P1 mutant V5.47T = biological target: T9, S1P1 mutant V5.47T (Homo sapiens, UniProt P21453, V209T); assay: [35S]GTPγS binding, S1P1 V5.47T; format: biochemical; settings: S1P-induced, S1P1 V5.47T in RH7777 cells
T9 construct: expressed in transfected cells; host or cells: RH7777
Description: as §1, §2

S1P1 mutant V5.47L = biological target: T10, S1P1 mutant V5.47L (Homo sapiens, UniProt P21453, V209L); assay: [35S]GTPγS binding, S1P1 V5.47L; format: biochemical; settings: S1P-induced, S1P1 V5.47L in RH7777 cells
T10 construct: expressed in transfected cells; host or cells: RH7777
Description: as §1, §2

S1P1 mutant L6.41E = biological target: T11, S1P1 mutant L6.41E (Homo sapiens, UniProt P21453, L262E); assay: [35S]GTPγS binding, S1P1 L6.41E; format: biochemical; settings: S1P-induced, S1P1 L6.41E in RH7777 cells
T11 construct: expressed in transfected cells; host or cells: RH7777
Description: as §1, §2

S1P1 mutant F5.48Y = biological target: T12, S1P1 mutant F5.48Y (Homo sapiens, UniProt P21453, F210Y); assay: [35S]GTPγS binding, S1P1 F5.48Y; format: biochemical; settings: S1P-induced, S1P1 F5.48Y in RH7777 cells
T12 construct: expressed in transfected cells; host or cells: RH7777
Description: as §1, §2

S1P1 mutant L5.52A = biological target: T13, S1P1 mutant L5.52A (Homo sapiens, UniProt P21453, L214A); assay: [35S]GTPγS binding, S1P1 L5.52A; format: biochemical; settings: S1P-induced, S1P1 L5.52A in RH7777 cells
T13 construct: expressed in transfected cells; host or cells: RH7777
Description: as §1, §2

S1P1 mutant W6.48E = biological target: T14, S1P1 mutant W6.48E (Homo sapiens, UniProt P21453, W269E); assay: [35S]GTPγS binding, S1P1 W6.48E; format: biochemical; settings: S1P-induced, S1P1 W6.48E in RH7777 cells
T14 construct: expressed in transfected cells; host or cells: RH7777
Description: as §1, §2

S1P1 mutant F5.48G = biological target: T15, S1P1 mutant F5.48G (Homo sapiens, UniProt P21453, F210G); assay: [32P]S1P radioligand binding, RH7777 cells, F5.48G; settings: radioligand 50 nM, S1P1 F5.48G
T15 construct: expressed in transfected cells
Description: as §1
(§3) The S1P binding assays were done essentially as previously described (28). Transfected RH7777 cells (5×10^5) were incubated at 4° C. in 20 mM Tris-HCl (pH 7.5) binding buffer containing 100 mM NaCl, 15 mM NaF, protease inhibitor cocktail (Sigma-Aldrich), and 0.2 mg/ml essentially fatty-acid free BSA with 1 nM [^32P]S1P in 50 nM S1P for 40 min. Cells were centrifuged and washed twice in binding buffer. The final pellet was resuspended in 2:1 CHCl3/MeOH and the suspension was equilibrated in scintillation fluid overnight. Cell-bound radioactivity was measured by liquid scintillation counting using a Beckman LS5000 TA counter (Beckman Coulter, Irvine, Calif.). Specific binding was defined as the difference between total binding and non-specific binding (in the presence of 2-5 μM cold S1P). Standard errors were computed on the basis of triplicate samples from two simultaneous transfections.

S1P1 mutant W6.48A = biological target: T16, S1P1 mutant W6.48A (Homo sapiens, UniProt P21453, W269A); assay: [32P]S1P radioligand binding, RH7777 cells, W6.48A; settings: radioligand 50 nM, S1P1 W6.48A
T16 construct: expressed in transfected cells
Description: as §1, §3

S1P1 mutant L3.36E = S1P1 mutant L3.36E (Homo sapiens, UniProt P21453, L128E); assay: [35S]GTPγS binding, S1P1 L3.36E; format: biochemical; set-up: expressed in transfected cells; host or cells: RH7777 (transient, pcDNA3.1); settings: S1P-induced, S1P1 L3.36E in RH7777 cells
Description: as §1, §2

T13 sequence (P21453 whole entry L214A): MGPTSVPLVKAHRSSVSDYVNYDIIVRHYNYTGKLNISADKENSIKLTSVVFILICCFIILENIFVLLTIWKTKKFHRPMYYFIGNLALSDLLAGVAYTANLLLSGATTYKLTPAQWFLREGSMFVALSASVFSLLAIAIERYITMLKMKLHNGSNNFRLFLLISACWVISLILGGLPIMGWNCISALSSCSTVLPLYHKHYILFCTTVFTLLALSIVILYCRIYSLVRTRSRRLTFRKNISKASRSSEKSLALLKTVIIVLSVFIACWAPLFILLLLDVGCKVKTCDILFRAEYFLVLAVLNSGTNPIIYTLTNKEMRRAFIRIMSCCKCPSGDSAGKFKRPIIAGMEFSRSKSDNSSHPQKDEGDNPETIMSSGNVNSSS
T9 sequence (P21453 whole entry V209T): as the sequence (P21453 whole entry L214A) above, with V209T, A214L counted along it
T7 sequence (P21453 whole entry F265Y): as the sequence (P21453 whole entry L214A) above, with A214L, F265Y counted along it
T5 sequence (P21453 whole entry V258T): as the sequence (P21453 whole entry L214A) above, with A214L, V258T counted along it
T3 sequence (P21453 whole entry I203A): as the sequence (P21453 whole entry L214A) above, with I203A, A214L counted along it
T14 sequence (P21453 whole entry W269E): as the sequence (P21453 whole entry L214A) above, with A214L, W269E counted along it
T8 sequence (P21453 whole entry M124K): as the sequence (P21453 whole entry L214A) above, with M124K, A214L counted along it
T1 sequence (P21453 whole entry F205G): as the sequence (P21453 whole entry L214A) above, with F205G, A214L counted along it
Chain of S1P1 mutant L3.36E (P21453 whole entry L128E): as the sequence (P21453 whole entry L214A) above, with L128E, A214L counted along it
T2 sequence (P21453 whole entry L128G): as the sequence (P21453 whole entry L214A) above, with L128G, A214L counted along it
T10 sequence (P21453 whole entry V209L): as the sequence (P21453 whole entry L214A) above, with V209L, A214L counted along it
T12 sequence (P21453 whole entry F210Y): as the sequence (P21453 whole entry L214A) above, with F210Y, A214L counted along it
T11 sequence (P21453 whole entry L262E): as the sequence (P21453 whole entry L214A) above, with A214L, L262E counted along it
T4 sequence (P21453 whole entry I203F): as the sequence (P21453 whole entry L214A) above, with I203F, A214L counted along it
T6 sequence (P21453 whole entry V258L): as the sequence (P21453 whole entry L214A) above, with A214L, V258L counted along it
T16 sequence (P21453 whole entry W269A): as the sequence (P21453 whole entry L214A) above, with A214L, W269A counted along it
T15 sequence (P21453 whole entry F210G): as the sequence (P21453 whole entry L214A) above, with F210G, A214L counted along it

% WT Emax + s.d. [1]: ∞
EC50 + s.d. [1]: ∞
EC50 (S1P1 mutant F5.43G): 11.8 nM
Emax (S1P1 mutant F5.43G; read-out: % WT Emax + s.d.): 70%
EC50 (S1P1 mutant L3.36G): 23 ± 8 nM
Emax (S1P1 mutant L3.36G; read-out: % WT Emax + s.d.): 75%
EC50 (S1P1 mutant I5.41A): 157 nM
Emax (S1P1 mutant I5.41A; read-out: % WT Emax + s.d.): 26%
EC50 (S1P1 mutant I5.41F): 18.9 nM
Emax (S1P1 mutant I5.41F; read-out: % WT Emax + s.d.): 27%
EC50 (S1P1 mutant V6.37T): 13 nM
Emax (S1P1 mutant V6.37T; read-out: % WT Emax + s.d.): 181%
EC50 (S1P1 mutant V6.37L): 37.6 nM
Emax (S1P1 mutant V6.37L; read-out: % WT Emax + s.d.): 247%
EC50 (S1P1 mutant F6.44Y): 3.7 ± 3.3 nM
Emax (S1P1 mutant F6.44Y; read-out: % WT Emax + s.d.): 37%
% WT Emax + s.d. (S1P1 mutant M3.32K): ∞
EC50 + s.d. (S1P1 mutant M3.32K): ∞
EC50 (S1P1 mutant V5.47T): 89 nM
Emax (S1P1 mutant V5.47T; read-out: % WT Emax + s.d.): 100%
% WT Emax + s.d. (S1P1 mutant V5.47L): ∞
EC50 + s.d. (S1P1 mutant V5.47L): ∞
EC50 (S1P1 mutant L6.41E): 4.1 ± 0.63 nM
Emax (S1P1 mutant L6.41E; read-out: % WT Emax + s.d.): 59%
% WT Emax + s.d. (S1P1 mutant F5.48Y): ∞
EC50 + s.d. (S1P1 mutant F5.48Y): ∞
% WT Emax + s.d. (S1P1 mutant L5.52A): ∞
EC50 + s.d. (S1P1 mutant L5.52A): ∞
% WT Emax + s.d. (S1P1 mutant W6.48E): ∞
EC50 + s.d. (S1P1 mutant W6.48E): ∞
[32P]S1P binding relative to WT (S1P1 mutant F5.48G): > 50 % of the WT
[32P]S1P binding relative to WT (S1P1 mutant W6.48A): > 50 % of the WT
EC50 (S1P1 mutant L3.36E): 0.62 ± 0.46 nM
Emax (S1P1 mutant L3.36E; read-out: % WT Emax + s.d.): 39 ± 2.8%
Compound: CCCCCCCCCCCCC/C=C/[C@@H](O)[C@@H](N)COP(=O)(O)O [S1P, Sphingosine 1-phosphate]
